Experimental data as given in ChEMBL document CHEMBL1130601, “Design and synthesis of 2-cyano-3,12-dioxoolean-1,9-dien-28-oic acid, a novel and highly active inhibitor of nitric oxide production in mouse macrophages” (Bioorg Med Chem Lett, 1998).

Experiments:
Type in all cases: functional, organism-based
Mus musculus [1] = organism: Mus musculus; assay: Compound was evaluated for inhibitory activity against production of nitric oxide (NO) induced by interferon-gamma (IFN-gamma) in mouse macrophages at a concentration of 0.01-40 uM
Mus musculus [2] = organism: Mus musculus; assay: Compound was evaluated for inhibitory activity against production of nitric oxide (NO) induced by interferon-gamma (IFN-gamma) in mouse macrophages at a concentration of 0.01-40 uM; Toxic above 1 uM and not active below 1 uM
Mus musculus [3] = organism: Mus musculus; assay: Compound was evaluated for inhibitory activity against production of nitric oxide (NO) induced by interferon-gamma (IFN-gamma) in mouse macrophages at a concentration of 0.1-1 uM
Mus musculus [4] = organism: Mus musculus; assay: Compound was evaluated for inhibitory activity against production of nitric oxide (NO) induced by interferon-gamma (IFN-gamma) in mouse macrophages

Structure (SMILES)	IC50 (Mus musculus [1])	also measured
CC1(C)CC[C@]2(C(=O)O)CC[C@]3(C)[C@H](C(=O)C=C4[C@@]5(C)C=CC(=O)C(C)(C)[C@@H]5CC[C@]43C)[C@@H]2C1	170 nM	
CC1(C)CC[C@]2(C(=O)O)CC[C@]3(C)C(=CC[C@@H]4[C@@]5(C)C=C(C=O)C(=O)C(C)(C)[C@@H]5CC[C@]43C)C2C1 (stereo not given in full)		IC50 (Mus musculus [2]): > 1000 nM
CC1(C)CC[C@]2(C(=O)O)CC[C@]3(C)C(=CC[C@@H]4[C@@]5(C)C=C(O)C(=O)C(C)(C)[C@@H]5CC[C@]43C)C2C1 (stereo not given in full)	37000 nM	
CC1(C)CC[C@]2(C(=O)O)CC[C@]3(C)C(=CC(=O)[C@@H]4[C@@]5(C)C=CC(=O)C(C)(C)[C@@H]5CC[C@]43C)C2C1 (stereo not given in full)	1400 nM	
CC1(C)CC[C@]2(C(=O)O)CC[C@]3(C)C(=CC[C@@H]4[C@@]5(C)C=CC(=O)C(C)(C)[C@@H]5CC[C@]43C)C2C1 (stereo not given in full)	7100 nM	
COC1=C[C@]2(C)[C@H]3CC=C4C5CC(C)(C)CC[C@]5(C(=O)O)CC[C@@]4(C)[C@]3(C)CC[C@H]2C(C)(C)C1=O (stereo not given in full)	19000 nM	
CC1(C)CC[C@]2(C(=O)O)CC[C@]3(C)C(=CC[C@@H]4[C@@]5(C)C=C(C#N)C(=O)C(C)(C)[C@@H]5CC[C@]43C)C2C1 (stereo not given in full)	600 nM	
CC1(C)CC[C@]2(C(=O)O)CC[C@]3(C)[C@H](C(=O)C=C4[C@@]5(C)C=C(C#N)C(=O)C(C)(C)[C@@H]5CC[C@]43C)[C@@H]2C1 [BARDOXOLONE]		IC50 (Mus musculus [3]): 0.4 nM
C[C@@H]1C[C@H]2[C@@H]3CCC4=CC(=O)C=C[C@]4(C)[C@@]3(F)[C@@H](O)C[C@]2(C)[C@@]1(O)C(=O)CO [DEXAMETHASONE]		IC50 (Mus musculus [4]): 0.3 nM
CC1(C)CC[C@]2(C(=O)O)CC[C@]3(C)C(=CC[C@@H]4[C@@]5(C)CC[C@H](O)C(C)(C)[C@@H]5CC[C@]43C)[C@@H]2C1 [OLEANOLIC_ACID]		IC50 (Mus musculus [4]): > 40000 nM
